# Source: PubChem BioAssay (NCI)
#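 Assay format: 96-well plates, 48-hour exposure. GI50 = concentration required for 50% inhibition of growth. TGI marks complete inhibition of growth.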
# Tests used:
# Assay in all cases: NCI tumour cell line growth inhibition, 48 h
# CAKI-1 renal = system: CAKI-1 renal
# HL-60(TB) leukemia = system: HL-60(TB) leukemia
# EKVX NSCLC = system: EKVX NSCLC
# PC-3 prostate = system: PC-3 prostate
# SF-295 CNS = system: SF-295 CNS
# SK-MEL-5 melanoma = system: SK-MEL-5 melanoma
# LOX IMVI melanoma = system: LOX IMVI melanoma
# SNB-19 CNS = system: SNB-19 CNS
# UACC-62 melanoma = system: UACC-62 melanoma
# K-562 leukemia = system: K-562 leukemia
# UO-31 renal = system: UO-31 renal
# SK-MEL-2 melanoma = system: SK-MEL-2 melanoma
# A549 NSCLC = system: A549 NSCLC
# NCI-H226 lung = system: NCI-H226 lung
# TK-10 renal = system: TK-10 renal
# HT29 colon = system: HT29 colon
# OVCAR-8 ovarian = system: OVCAR-8 ovarian
# HCT-15 colon = system: HCT-15 colon
# MDA-MB-231 breast = system: MDA-MB-231 breast
# SK-MEL-28 melanoma = system: SK-MEL-28 melanoma
# SW-620 colon = system: SW-620 colon
# ACHN renal = system: ACHN renal
# OVCAR-5 ovarian = system: OVCAR-5 ovarian
# DU-145 prostate = system: DU-145 prostate
# HCT-116 colon = system: HCT-116 colon
# RXF 393 renal = system: RXF 393 renal
# 786-0 renal = system: 786-0 renal
# MALME-3M melanoma = system: MALME-3M melanoma
# KM12 colon = system: KM12 colon
# MDA-MB-435 = system: MDA-MB-435
# HS 578T breast = system: HS 578T breast
# SF-268 CNS = system: SF-268 CNS
# T-47D breast = system: T-47D breast
# HCC-2998 colon = system: HCC-2998 colon
# UACC-257 melanoma = system: UACC-257 melanoma
# SF-539 CNS = system: SF-539 CNS
# OVCAR-4 ovarian = system: OVCAR-4 ovarian
# HOP-62 NSCLC = system: HOP-62 NSCLC
# MOLT-4 leukemia = system: MOLT-4 leukemia
# COLO 205 colon = system: COLO 205 colon
# SNB-75 CNS = system: SNB-75 CNS
# M14 melanoma = system: M14 melanoma
# SR leukemia = system: SR leukemia
# A498 renal = system: A498 renal
# NCI-H23 lung = system: NCI-H23 lung
# HOP-92 NSCLC = system: HOP-92 NSCLC
# NCI/ADR-RES ovarian = system: NCI/ADR-RES ovarian
# RPMI-8226 leukemia = system: RPMI-8226 leukemia
# NCI-H460 lung = system: NCI-H460 lung
# MCF7 breast = system: MCF7 breast
# SK-OV-3 ovarian = system: SK-OV-3 ovarian
# SN12C renal = system: SN12C renal
# CCRF-CEM leukemia = system: CCRF-CEM leukemia
# OVCAR-3 ovarian = system: OVCAR-3 ovarian
# U251 CNS = system: U251 CNS
smiles,measurement,setting,value
Cn1c2ccccc2c2c(=O)n(CCCC(=O)NCCc3cnc[nH]3)c3c(-c4ccccc4)nnn3c21,GI50,CAKI-1 renal,12 µM
same,TGI,CAKI-1 renal,33.4 µM
same,GI50,HL-60(TB) leukemia,11.8 µM
same,TGI,HL-60(TB) leukemia,28.4 µM
same,GI50,EKVX NSCLC,10 µM
same,TGI,EKVX NSCLC,23.9 µM
same,GI50,PC-3 prostate,9.01 µM
same,TGI,PC-3 prostate,20.1 µM
same,GI50,SF-295 CNS,9.18 µM
same,TGI,SF-295 CNS,17.8 µM
same,GI50,SK-MEL-5 melanoma,9.09 µM
same,TGI,SK-MEL-5 melanoma,17.2 µM
same,GI50,LOX IMVI melanoma,11.2 µM
same,TGI,LOX IMVI melanoma,22.9 µM
same,GI50,SNB-19 CNS,11.8 µM
same,TGI,SNB-19 CNS,24.1 µM
same,GI50,UACC-62 melanoma,9.87 µM
same,TGI,UACC-62 melanoma,17.6 µM
same,GI50,K-562 leukemia,8.9 µM
same,TGI,K-562 leukemia,27 µM
same,GI50,UO-31 renal,7.46 µM
same,TGI,UO-31 renal,14.8 µM
same,GI50,SK-MEL-2 melanoma,10.3 µM
same,TGI,SK-MEL-2 melanoma,21 µM
same,GI50,A549 NSCLC,12.8 µM
same,TGI,A549 NSCLC,24.2 µM
same,GI50,NCI-H226 lung,> 50 µM
same,TGI,NCI-H226 lung,> 50 µM
same,GI50,TK-10 renal,4.8 µM
same,TGI,TK-10 renal,11.5 µM
same,GI50,HT29 colon,8.55 µM
same,TGI,HT29 colon,17.9 µM
same,GI50,OVCAR-8 ovarian,10.1 µM
same,TGI,OVCAR-8 ovarian,20.8 µM
same,GI50,HCT-15 colon,14.6 µM
same,TGI,HCT-15 colon,44.1 µM
same,GI50,MDA-MB-231 breast,9.27 µM
same,TGI,MDA-MB-231 breast,18.6 µM
same,GI50,SK-MEL-28 melanoma,8.86 µM
same,TGI,SK-MEL-28 melanoma,16.9 µM
same,GI50,SW-620 colon,13 µM
same,TGI,SW-620 colon,30.2 µM
same,GI50,ACHN renal,9.74 µM
same,TGI,ACHN renal,17.9 µM
same,GI50,OVCAR-5 ovarian,10.8 µM
same,TGI,OVCAR-5 ovarian,20.3 µM
same,GI50,DU-145 prostate,6.88 µM
same,TGI,DU-145 prostate,13.8 µM
same,GI50,HCT-116 colon,5.95 µM
same,TGI,HCT-116 colon,13.8 µM
same,GI50,RXF 393 renal,7.41 µM
same,TGI,RXF 393 renal,18.2 µM
same,GI50,786-0 renal,2.19 µM
same,TGI,786-0 renal,8.15 µM
same,GI50,MALME-3M melanoma,7.55 µM
same,TGI,MALME-3M melanoma,16.7 µM
same,GI50,KM12 colon,8.16 µM
same,TGI,KM12 colon,16.9 µM
same,GI50,MDA-MB-435,10.2 µM
same,TGI,MDA-MB-435,20 µM
same,GI50,HS 578T breast,10.4 µM
same,TGI,HS 578T breast,22.6 µM
same,GI50,SF-268 CNS,11.7 µM
same,TGI,SF-268 CNS,31.6 µM
same,GI50,T-47D breast,10.4 µM
same,TGI,T-47D breast,25.1 µM
same,GI50,HCC-2998 colon,9.51 µM
same,TGI,HCC-2998 colon,19.7 µM
same,GI50,UACC-257 melanoma,12 µM
same,TGI,UACC-257 melanoma,21.6 µM
same,GI50,SF-539 CNS,9.26 µM
same,TGI,SF-539 CNS,17.2 µM
same,GI50,OVCAR-4 ovarian,10.1 µM
same,TGI,OVCAR-4 ovarian,20.5 µM
same,GI50,HOP-62 NSCLC,7.67 µM
same,TGI,HOP-62 NSCLC,16.9 µM
same,GI50,MOLT-4 leukemia,3.95 µM
same,TGI,MOLT-4 leukemia,21.5 µM
same,GI50,COLO 205 colon,8.51 µM
same,TGI,COLO 205 colon,19.6 µM
same,GI50,SNB-75 CNS,10.4 µM
same,TGI,SNB-75 CNS,18.6 µM
same,GI50,M14 melanoma,11.9 µM
same,TGI,M14 melanoma,24.3 µM
same,GI50,SR leukemia,4.03 µM
same,TGI,SR leukemia,> 50 µM
same,GI50,A498 renal,7.58 µM
same,TGI,A498 renal,15.2 µM
same,GI50,NCI-H23 lung,13.3 µM
same,TGI,NCI-H23 lung,46.9 µM
same,GI50,HOP-92 NSCLC,1.35 µM
same,TGI,HOP-92 NSCLC,5.48 µM
same,GI50,NCI/ADR-RES ovarian,> 50 µM
same,TGI,NCI/ADR-RES ovarian,> 50 µM
same,GI50,RPMI-8226 leukemia,10.5 µM
same,TGI,RPMI-8226 leukemia,28.6 µM
same,GI50,NCI-H460 lung,10.9 µM
same,TGI,NCI-H460 lung,24.3 µM
same,GI50,MCF7 breast,13 µM
same,TGI,MCF7 breast,30.3 µM
same,GI50,SK-OV-3 ovarian,10.2 µM
same,TGI,SK-OV-3 ovarian,18.7 µM
same,GI50,SN12C renal,8.76 µM
same,TGI,SN12C renal,18.7 µM
same,GI50,CCRF-CEM leukemia,1.51 µM
same,TGI,CCRF-CEM leukemia,> 50 µM
same,GI50,OVCAR-3 ovarian,8.39 µM
same,TGI,OVCAR-3 ovarian,16.3 µM
same,GI50,U251 CNS,9.46 µM
same,TGI,U251 CNS,18.4 µM
